Results as given in PubChem BioAssay (NCI).
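All cell lines were grown in 96-well plates and treated with compound for 48 hours. GI50 marks 50% less growth. TGI denotes the concentration required for complete inhibition of growth.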

Columns and labels:
Assay in all cases: growth of human tumour cells (NCI), 48 h
HCT-15 colon = tested on: HCT-15 colon
EKVX NSCLC = tested on: EKVX NSCLC
OVCAR-3 ovarian = tested on: OVCAR-3 ovarian
SF-295 CNS = tested on: SF-295 CNS
M14 melanoma = tested on: M14 melanoma
RPMI-8226 leukemia = tested on: RPMI-8226 leukemia
CAKI-1 renal = tested on: CAKI-1 renal
COLO 205 colon = tested on: COLO 205 colon
HS 578T breast = tested on: HS 578T breast
RXF 393 renal = tested on: RXF 393 renal
HCC-2998 colon = tested on: HCC-2998 colon
MDA-MB-231 breast = tested on: MDA-MB-231 breast
ACHN renal = tested on: ACHN renal
OVCAR-8 ovarian = tested on: OVCAR-8 ovarian
SK-MEL-2 melanoma = tested on: SK-MEL-2 melanoma
SN12C renal = tested on: SN12C renal
OVCAR-5 ovarian = tested on: OVCAR-5 ovarian
CCRF-CEM leukemia = tested on: CCRF-CEM leukemia
IGROV1 ovarian = tested on: IGROV1 ovarian
NCI-H460 lung = tested on: NCI-H460 lung
UACC-257 melanoma = tested on: UACC-257 melanoma
A549 NSCLC = tested on: A549 NSCLC
MDA-MB-435 = tested on: MDA-MB-435
SF-268 CNS = tested on: SF-268 CNS
MOLT-4 leukemia = tested on: MOLT-4 leukemia
SK-OV-3 ovarian = tested on: SK-OV-3 ovarian
SNB-19 CNS = tested on: SNB-19 CNS
786-0 renal = tested on: 786-0 renal
PC-3 prostate = tested on: PC-3 prostate
LOX IMVI melanoma = tested on: LOX IMVI melanoma
U251 CNS = tested on: U251 CNS
NCI-H522 lung = tested on: NCI-H522 lung
NCI-H226 lung = tested on: NCI-H226 lung
BT-549 breast = tested on: BT-549 breast
MCF7 breast = tested on: MCF7 breast
A498 renal = tested on: A498 renal
NCI/ADR-RES ovarian = tested on: NCI/ADR-RES ovarian
TK-10 renal = tested on: TK-10 renal
SK-MEL-5 melanoma = tested on: SK-MEL-5 melanoma
UACC-62 melanoma = tested on: UACC-62 melanoma
HCT-116 colon = tested on: HCT-116 colon
NCI-H23 lung = tested on: NCI-H23 lung
SW-620 colon = tested on: SW-620 colon
SR leukemia = tested on: SR leukemia
UO-31 renal = tested on: UO-31 renal
K-562 leukemia = tested on: K-562 leukemia
KM12 colon = tested on: KM12 colon
SF-539 CNS = tested on: SF-539 CNS
T-47D breast = tested on: T-47D breast

CCN(CC)CCOc1c(OC)c(Br)cc2c(C)c(C(=O)OC)oc12
GI50 (HCT-15 colon): 864 nM
TGI (HCT-15 colon): 2460 nM
GI50 (EKVX NSCLC): 1550 nM
TGI (EKVX NSCLC): 5010 nM
GI50 (OVCAR-3 ovarian): 982 nM
TGI (OVCAR-3 ovarian): 2280 nM
GI50 (SF-295 CNS): 1180 nM
TGI (SF-295 CNS): 2990 nM
GI50 (M14 melanoma): 1180 nM
TGI (M14 melanoma): 4400 nM
GI50 (RPMI-8226 leukemia): 186 nM
TGI (RPMI-8226 leukemia): 834 nM
GI50 (CAKI-1 renal): 1260 nM
TGI (CAKI-1 renal): 3500 nM
GI50 (COLO 205 colon): 925 nM
TGI (COLO 205 colon): 3680 nM
GI50 (HS 578T breast): 1440 nM
TGI (HS 578T breast): 3820 nM
GI50 (RXF 393 renal): 4170 nM
TGI (RXF 393 renal): 13000 nM
GI50 (HCC-2998 colon): 2420 nM
TGI (HCC-2998 colon): 7410 nM
GI50 (MDA-MB-231 breast): 1220 nM
TGI (MDA-MB-231 breast): 3460 nM
GI50 (ACHN renal): 899 nM
TGI (ACHN renal): 2080 nM
GI50 (OVCAR-8 ovarian): 2130 nM
TGI (OVCAR-8 ovarian): 7880 nM
GI50 (SK-MEL-2 melanoma): 3170 nM
TGI (SK-MEL-2 melanoma): 50000 nM
GI50 (SN12C renal): 920 nM
TGI (SN12C renal): 2360 nM
GI50 (OVCAR-5 ovarian): 3140 nM
TGI (OVCAR-5 ovarian): 9290 nM
GI50 (CCRF-CEM leukemia): 154 nM
TGI (CCRF-CEM leukemia): 720 nM
GI50 (IGROV1 ovarian): 1400 nM
TGI (IGROV1 ovarian): 7050 nM
GI50 (NCI-H460 lung): 1310 nM
TGI (NCI-H460 lung): 3750 nM
GI50 (UACC-257 melanoma): 1530 nM
TGI (UACC-257 melanoma): 4290 nM
GI50 (A549 NSCLC): 10000 nM
TGI (A549 NSCLC): 20200 nM
GI50 (MDA-MB-435): 1030 nM
TGI (MDA-MB-435): 2620 nM
GI50 (SF-268 CNS): 1330 nM
TGI (SF-268 CNS): 5080 nM
GI50 (MOLT-4 leukemia): 374 nM
TGI (MOLT-4 leukemia): 1230 nM
GI50 (SK-OV-3 ovarian): 1290 nM
TGI (SK-OV-3 ovarian): 4100 nM
GI50 (SNB-19 CNS): 2310 nM
TGI (SNB-19 CNS): 10700 nM
GI50 (786-0 renal): 1710 nM
TGI (786-0 renal): 6040 nM
GI50 (PC-3 prostate): 368 nM
TGI (PC-3 prostate): 1030 nM
GI50 (LOX IMVI melanoma): 749 nM
TGI (LOX IMVI melanoma): 1450 nM
GI50 (U251 CNS): 280 nM
TGI (U251 CNS): 970 nM
GI50 (NCI-H522 lung): 1320 nM
TGI (NCI-H522 lung): 11900 nM
GI50 (NCI-H226 lung): 1160 nM
TGI (NCI-H226 lung): 3390 nM
GI50 (BT-549 breast): 1610 nM
TGI (BT-549 breast): 5620 nM
GI50 (MCF7 breast): 1630 nM
TGI (MCF7 breast): 5740 nM
GI50 (A498 renal): 7390 nM
TGI (A498 renal): 14600 nM
GI50 (NCI/ADR-RES ovarian): 6450 nM
TGI (NCI/ADR-RES ovarian): 12800 nM
GI50 (TK-10 renal): 1120 nM
TGI (TK-10 renal): 2990 nM
GI50 (SK-MEL-5 melanoma): 818 nM
TGI (SK-MEL-5 melanoma): 1530 nM
GI50 (UACC-62 melanoma): 1330 nM
TGI (UACC-62 melanoma): 4920 nM
GI50 (HCT-116 colon): 1170 nM
TGI (HCT-116 colon): 3150 nM
GI50 (NCI-H23 lung): 1120 nM
TGI (NCI-H23 lung): 2680 nM
GI50 (SW-620 colon): 802 nM
TGI (SW-620 colon): 2040 nM
GI50 (SR leukemia): 542 nM
TGI (SR leukemia): 1310 nM
GI50 (UO-31 renal): 3190 nM
TGI (UO-31 renal): 50000 nM
GI50 (K-562 leukemia): 332 nM
TGI (K-562 leukemia): 2090 nM
GI50 (KM12 colon): 569 nM
TGI (KM12 colon): 1980 nM
GI50 (SF-539 CNS): 1470 nM
TGI (SF-539 CNS): 3150 nM
GI50 (T-47D breast): 188 nM
TGI (T-47D breast): 488 nM
